Data: ChEMBL document CHEMBL1201862, “PubChem BioAssay data set” (2004)
Calls of active or inactive are those of the source.

Columns and labels:
[1] = test system: INS1; experiment: beta cell apoptosis inhibitors, cytokine rescue, dose response, luminescence, retest (AID 449756); assay type: functional, cell-based; details: Rattus norvegicus;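 note: cell death triggered by IL-1 beta plus TNF-alpha plus IFN-gamma mixture; protective hits raise ATP signal compared with cytokine alone wells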
[2] = growth suppression of PTEN-null colon cells, dose response, cell-based, HCT116 PTEN knockout (AID 1047); assay type: functional;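 note: HCT116 colon tumor cells with PTEN knocked out; cells exposed to compound for 60 hours before readout; potency for loss of cell viability measured by luminescence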
[3] = biological target: T1, Heat shock factor protein 1 (Mus musculus, UniProt P38532); experiment: HSF1 potentiators in luciferase reporter cells, confirmation, cell-based, NIH3T3, luminescence, dose retest (AID 435004); assay type: functional;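 note: stress induced by proteasome inhibitor MG132 added 30 min after compound; luciferase reporter driven by HSF1 response element in NIH3T3 cells; actives raise luminescence as potentiators of the MG132 stress response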
T1 sequence (P38532 whole entry): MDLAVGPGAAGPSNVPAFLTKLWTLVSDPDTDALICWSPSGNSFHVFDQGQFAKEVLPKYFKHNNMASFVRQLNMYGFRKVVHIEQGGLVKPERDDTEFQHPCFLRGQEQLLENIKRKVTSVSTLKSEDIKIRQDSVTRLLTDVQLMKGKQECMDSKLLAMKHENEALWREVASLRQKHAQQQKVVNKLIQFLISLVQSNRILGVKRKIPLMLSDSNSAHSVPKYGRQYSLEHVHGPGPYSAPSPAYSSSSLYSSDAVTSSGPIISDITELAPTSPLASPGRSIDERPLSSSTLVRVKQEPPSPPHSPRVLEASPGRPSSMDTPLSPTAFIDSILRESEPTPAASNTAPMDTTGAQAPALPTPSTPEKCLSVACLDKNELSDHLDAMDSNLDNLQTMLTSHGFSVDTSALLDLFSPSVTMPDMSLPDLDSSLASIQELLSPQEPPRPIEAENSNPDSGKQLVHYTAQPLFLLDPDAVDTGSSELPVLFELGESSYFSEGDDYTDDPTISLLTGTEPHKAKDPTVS

[4] = growth suppression of beta-catenin-knockout colon cells, dose response, cell-based, HCT116, human colon tumor (AID 1045); assay type: functional;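 note: HCT116 colon tumor cells with beta catenin knocked out; cells exposed to compound for 60 hours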
[5] = test system: H9c2; experiment: cells; assay type: functional, cell-based; details: Rattus norvegicus, H9c2, Myocardium;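 note: confirmatory concentration-response retest of ultra-high-throughput screening hits for modulation of myocardial damage; cell death induced by hydrogen peroxide oxidative stress; compound pretreatment for 60 min then peroxide exposure for 2 h; potency is for protecting the cells against peroxide damage rather than for killing them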
[6] = biological target: Large T antigen (Simian virus 40, UniProt P03070); assay type: functional, Betapolyomavirus macacae;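 note: Confirmatory-stage PubChem screen for compounds that inhibit SV40 T antigen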
[7] = Luminescence Cell-Based Dose Retest to Confirm Inhibitors of Cancer Stem Cells. [Related pubchem assays (depositor defined):AID2717, AID2721]; assay type: functional; details: Homo sapiens
[8] = biological target: Induced myeloid leukemia cell differentiation protein Mcl-1 (Homo sapiens, UniProt Q07820); assay type: functional
[9] = biological target: T2, Protein RecA (Mycobacterium tuberculosis, UniProt P9WHJ3); experiment: Fluorescence Cell-Free Homogeneous Dose Retest to Identify Inhibitors of RecA-Intein Splicing Activity. [Related pubchem assays (depositor defined):AID2097, AID2223, AID489010, AID492950]; assay type: functional
T2 sequence (P9WHJ3 whole entry): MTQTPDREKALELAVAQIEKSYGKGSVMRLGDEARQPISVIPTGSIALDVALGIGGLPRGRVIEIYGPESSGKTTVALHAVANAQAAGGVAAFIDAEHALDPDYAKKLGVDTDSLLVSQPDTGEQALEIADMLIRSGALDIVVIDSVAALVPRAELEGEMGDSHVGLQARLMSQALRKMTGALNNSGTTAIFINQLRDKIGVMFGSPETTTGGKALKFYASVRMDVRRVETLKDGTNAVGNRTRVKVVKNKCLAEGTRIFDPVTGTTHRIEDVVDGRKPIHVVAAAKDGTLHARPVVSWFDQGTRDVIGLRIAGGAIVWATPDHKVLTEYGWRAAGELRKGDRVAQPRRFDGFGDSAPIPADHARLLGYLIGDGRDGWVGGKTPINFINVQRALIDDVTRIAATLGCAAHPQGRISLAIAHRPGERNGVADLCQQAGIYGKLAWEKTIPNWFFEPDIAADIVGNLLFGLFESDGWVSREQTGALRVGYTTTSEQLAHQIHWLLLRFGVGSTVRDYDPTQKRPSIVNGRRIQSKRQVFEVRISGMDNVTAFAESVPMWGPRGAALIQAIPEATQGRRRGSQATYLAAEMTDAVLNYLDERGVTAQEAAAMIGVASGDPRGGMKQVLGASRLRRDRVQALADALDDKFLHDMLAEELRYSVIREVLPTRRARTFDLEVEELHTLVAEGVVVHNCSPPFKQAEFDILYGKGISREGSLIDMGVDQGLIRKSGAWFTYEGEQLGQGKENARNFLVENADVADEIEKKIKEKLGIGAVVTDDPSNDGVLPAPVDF

[10] = biological target: T3, Replicative DNA helicase DnaB (Mycobacterium tuberculosis, UniProt P9WMR3); experiment: DnaB intein splicing inhibitors, dose response, biochemical, cell-free fluorescence (AID 449749); assay type: functional
T3 sequence (P9WMR3 whole entry): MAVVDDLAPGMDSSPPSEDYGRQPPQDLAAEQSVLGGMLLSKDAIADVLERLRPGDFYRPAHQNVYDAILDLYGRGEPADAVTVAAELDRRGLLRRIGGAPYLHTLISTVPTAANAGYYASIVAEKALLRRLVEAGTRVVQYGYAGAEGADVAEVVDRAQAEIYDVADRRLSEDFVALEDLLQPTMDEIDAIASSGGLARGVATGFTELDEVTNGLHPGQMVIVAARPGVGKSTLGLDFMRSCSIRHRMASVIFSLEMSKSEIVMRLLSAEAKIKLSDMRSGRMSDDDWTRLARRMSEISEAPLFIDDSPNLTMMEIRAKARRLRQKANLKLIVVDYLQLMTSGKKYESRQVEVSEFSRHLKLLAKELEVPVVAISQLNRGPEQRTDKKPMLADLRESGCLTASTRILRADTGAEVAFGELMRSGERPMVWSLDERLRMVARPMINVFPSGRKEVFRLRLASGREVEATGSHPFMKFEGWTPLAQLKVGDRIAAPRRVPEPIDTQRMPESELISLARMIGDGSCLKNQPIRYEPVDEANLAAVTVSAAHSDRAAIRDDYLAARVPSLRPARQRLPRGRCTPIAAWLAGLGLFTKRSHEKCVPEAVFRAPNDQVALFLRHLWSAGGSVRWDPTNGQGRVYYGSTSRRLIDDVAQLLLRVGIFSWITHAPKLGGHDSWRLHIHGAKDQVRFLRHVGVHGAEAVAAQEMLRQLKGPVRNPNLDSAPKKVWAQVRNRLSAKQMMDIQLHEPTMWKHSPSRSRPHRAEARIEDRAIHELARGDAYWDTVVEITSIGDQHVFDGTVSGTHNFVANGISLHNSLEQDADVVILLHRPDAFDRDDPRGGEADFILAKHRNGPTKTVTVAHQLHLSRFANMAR

[11] = biological target: FAD-linked sulfhydryl oxidase ALR (Homo sapiens, UniProt P55789); experiment: inhibitors of human ALR sulfhydryl oxidase, dose response, biochemical, H2O2 detection, luminescence, cherry-pick (AID 493248)
[12] = cells; assay type: functional
[13] = biological target: Cytochrome P450 2D6 (Homo sapiens, UniProt P10635);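 note: CYP2D6 member of a cytochrome P450 panel assay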
[14] = biological target: T1, Heat shock factor protein 1; experiment: inhibition of MG132-induced HSE-luciferase signal, confirmation, cell-based, NIH3T3, luminescence, dose retest (AID 2382); assay type: functional;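 note: NIH3T3 fibroblasts with HSF1-driven luciferase reporter stressed by proteasome inhibitor MG132; luminescence from HSF1-driven luciferase expression after 8 hours of MG132 stress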
[15] = test system: Streptococcus sp. 'group A'; experiment: growth inhibition of control SK(-) GAS strain, dose response, counter-screen for streptokinase expression inhibitor project, luminescence, kanamycin, BacTiterGlo, confirmation (AID 1900); assay type: functional, organism-based
[16] = test system: Streptococcus; experiment: Group A Streptococcus viability loss, dose response, counter-screen for streptokinase expression inhibitor project, luminescence, BacTiterGlo (AID 1915); assay type: functional, organism-based;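 note: potency for reduction of bacterial viability or growth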
[17] = Luminescence Cell-Based Dose Response HTS to Identify Inhibitors of 5'UTR Stem-Loop Driven Prion Protein mRNA Translation in H4 Neuroglioblastoma Cells. [Related pubchem assays: 1827 (Project Summary), 1813 (Primary HTS)]; assay type: functional
[18] = inhibitors of SNCA 5'UTR-driven reporter translation, confirmation, H4 neuroglioma cells, luminescence (AID 1988); assay type: functional, cell-based
[19] = inhibitors of firefly luciferase expression or activity, dose response, H4 neuroglioma cells, luminescence (AID 1990); assay type: functional, cell-based
[20] = HEp-2 cell cytotoxicity, dose response, cytotoxicity control for RSV inhibitor project, HTS (AID 2410); assay type: functional; details: human respiratory syncytial virus

Chain of Induced myeloid leukemia cell differentiation protein Mcl-1 (Q07820 whole entry): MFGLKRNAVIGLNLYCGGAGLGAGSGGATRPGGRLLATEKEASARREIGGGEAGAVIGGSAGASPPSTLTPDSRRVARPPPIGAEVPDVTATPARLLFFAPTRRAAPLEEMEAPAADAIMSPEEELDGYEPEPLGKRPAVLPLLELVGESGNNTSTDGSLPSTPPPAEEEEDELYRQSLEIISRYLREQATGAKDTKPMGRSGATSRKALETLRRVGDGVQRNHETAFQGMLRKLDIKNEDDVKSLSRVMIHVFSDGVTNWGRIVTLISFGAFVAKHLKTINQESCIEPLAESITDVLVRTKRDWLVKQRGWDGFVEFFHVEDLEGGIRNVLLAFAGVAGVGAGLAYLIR
Chain of Large T antigen (P03070 whole entry): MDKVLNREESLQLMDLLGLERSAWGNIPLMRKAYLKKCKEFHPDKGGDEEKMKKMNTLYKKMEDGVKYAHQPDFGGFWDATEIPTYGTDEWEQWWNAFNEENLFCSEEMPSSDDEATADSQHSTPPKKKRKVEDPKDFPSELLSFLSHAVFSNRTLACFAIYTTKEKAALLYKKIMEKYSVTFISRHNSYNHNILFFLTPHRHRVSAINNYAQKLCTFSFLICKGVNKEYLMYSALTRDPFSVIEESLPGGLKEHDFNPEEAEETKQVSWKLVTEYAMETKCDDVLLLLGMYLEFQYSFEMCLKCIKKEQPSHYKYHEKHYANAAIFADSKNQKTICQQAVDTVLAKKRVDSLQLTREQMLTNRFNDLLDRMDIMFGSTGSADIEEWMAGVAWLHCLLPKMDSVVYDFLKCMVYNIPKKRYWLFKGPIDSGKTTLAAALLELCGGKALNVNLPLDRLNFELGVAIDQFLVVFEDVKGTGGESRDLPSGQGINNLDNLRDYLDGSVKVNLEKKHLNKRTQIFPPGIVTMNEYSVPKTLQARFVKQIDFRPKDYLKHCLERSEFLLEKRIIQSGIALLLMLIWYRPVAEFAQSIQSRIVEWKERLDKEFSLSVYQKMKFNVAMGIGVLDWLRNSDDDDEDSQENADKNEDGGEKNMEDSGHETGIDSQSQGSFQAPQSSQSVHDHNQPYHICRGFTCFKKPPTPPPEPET
Chain of FAD-linked sulfhydryl oxidase ALR (P55789 whole entry): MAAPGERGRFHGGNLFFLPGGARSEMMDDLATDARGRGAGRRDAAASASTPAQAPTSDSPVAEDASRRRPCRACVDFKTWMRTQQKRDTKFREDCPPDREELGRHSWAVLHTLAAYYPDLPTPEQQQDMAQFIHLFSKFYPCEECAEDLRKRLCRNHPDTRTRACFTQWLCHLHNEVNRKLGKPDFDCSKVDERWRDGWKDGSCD
Chain of Cytochrome P450 2D6 (P10635 whole entry): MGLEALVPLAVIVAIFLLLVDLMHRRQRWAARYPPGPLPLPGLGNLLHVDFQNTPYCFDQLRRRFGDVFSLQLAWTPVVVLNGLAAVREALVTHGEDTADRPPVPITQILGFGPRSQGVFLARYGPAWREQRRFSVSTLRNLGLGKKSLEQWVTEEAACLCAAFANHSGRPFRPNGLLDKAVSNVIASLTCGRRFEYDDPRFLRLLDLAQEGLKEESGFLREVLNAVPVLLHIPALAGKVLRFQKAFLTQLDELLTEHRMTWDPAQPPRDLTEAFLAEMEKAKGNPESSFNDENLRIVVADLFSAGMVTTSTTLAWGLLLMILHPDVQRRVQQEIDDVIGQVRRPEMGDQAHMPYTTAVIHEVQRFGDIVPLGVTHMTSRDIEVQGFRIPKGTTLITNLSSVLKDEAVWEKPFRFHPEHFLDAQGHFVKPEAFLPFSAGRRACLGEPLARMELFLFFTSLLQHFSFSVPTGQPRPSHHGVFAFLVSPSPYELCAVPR

CNc1nc2cc([N+](=O)[O-])c([N+](=O)[O-])cc2nc1NC
AC50 [1]: 0.32 µM (active)

CCn1c2ccccc2c2cc(NC(=O)CSc3nnc(-c4cccc(OC)c4)n3N)ccc21
EC50 [2]: 32.1 µM (active) | EC50 [3]: 33.9 µM (active) | EC50 [4]: 31.5 µM (active)

O=C(Nc1ccc(Cl)c(Cl)c1)N1CCSC1c1ccco1 (stereo not drawn)
AC50 [1]: 11.8 µM (active)

N#Cc1c(-c2ccco2)cc(-c2cccnc2)nc1N
IC50 [5]: > 79 µM (inactive)

Cc1ccccc1NP(=O)(Oc1ccccc1F)Oc1ccccc1F
IC50 [5]: > 79 µM (inactive)

C=CCNC(S)=NNC(=O)c1cc(O)ccc1O
IC50 [6]: > 100 µM (active)

CC(C)Oc1cccc(C(=O)NC(=S)Nc2ccccc2N2CCOCC2)c1
AC50 [7]: 4.53 µM (active)

CN(C)c1ccc(C(CNC(=O)c2ccc(F)cc2)c2c[nH]c3ccccc23)cc1 (stereo not drawn)
IC50 [8]: 3.08 µM (not active)

CSc1nc(=S)n(-c2ccc([N+](=O)[O-])cc2)c(C)c1C(C)=O
EC50 [9]: 12.1 µM (active) | AC50 [10]: 40.3 µM (active)

CC(C)c1n[nH]c2c1C(c1cccnc1)C(C#N)=C(N)O2 (stereo not drawn)
EC50 [9]: 1.81 µM (inconclusive) | AC50 [10]: 1.78 µM (active)

O=C(O)CCc1nc(-c2cccs2)no1
IC50 [8]: 17.6 µM (not active)

NNC(=O)c1cc(-c2ccccc2)sc1N
AC50 [11]: 8.45 µM (active) | IC50 [6]: 17.2 µM (active)

Cc1ccccc1NC(=O)COc1cccc2c1CCNC2=O
IC50 [5]: 13.9 µM (active)

Cc1ccc(C(C[N+](=O)[O-])n2nc(C)cc2C)cc1 (stereo not drawn)
AC50 [7]: 13 µM (active)

O=C(COC(=O)CCc1c[nH]c2ccccc12)NCc1ccc2c(c1)OCO2
IC50 [12]: 11.3 µM (active)

c1ccc(CN2CCC(Nc3nc(-c4cccs4)nc4ccccc34)CC2)cc1
AC50 [7]: 4.2 µM (active)

Cc1ccc2[nH]c3nc(N/N=C/c4cccc(O)c4)nnc3c2c1
AC50 [7]: < 0.16 µM (active)

COc1ccc(/C=N/NC(=O)c2cc[nH]n2)cc1COc1ccc(Cl)cc1
AC50 [13]: 25.1 µM (inconclusive) | IC50 [5]: > 79 µM (inactive)

CCN(CC)c1ccc(C2C(C(=O)OC(C)C)C(=O)CC(C)(O)C2C(=O)OC(C)C)cc1 (stereo not drawn)
IC50 [5]: > 79 µM (inactive)

COCCn1/c(=N/C(=O)c2nc3ccccc3s2)sc2cc(S(C)(=O)=O)ccc21
IC50 [5]: > 79 µM (inactive)

CCOc1ccc(N=Nc2c(N)n[nH]c2O)cc1
EC50 [9]: 3.85 µM (active) | EC50 [14]: > 195 µM (not active) | AC50 [10]: 15.3 µM (active)

COc1ccccc1NC(=O)c1cc(-c2ccc(OC)c(OC)c2)nc2ccccc12
IC50 [5]: > 79 µM (inactive)

COc1ccc(-c2ccc3c(n2)sc2c(=O)[nH]c(=O)[nH]c23)cc1OC
IC50 [8]: 1.76 µM (active)

CCn1c(SCC(=O)Nc2ccc(OC)cc2)nc2nc3c(cc2c1=O)CCCC3
AC50 [1]: 38.7 µM (active)

COc1cc(-c2cc(C(=O)OCC(=O)NC3CC3)c3ccccc3n2)cc(OC)c1OC
IC50 [5]: > 79 µM (inactive)

O=C(O)CCC(=O)Nc1ccc(SSc2ccc(NC(=O)CCC(=O)O)cc2)cc1
IC50 [6]: 5.39 µM (active)

CCCc1n[nH]c(O)c1C(c1ccc(Br)cc1)C(C#N)C#N (stereo not drawn)
EC50 [9]: 4.06 µM (active) | AC50 [10]: 5.5 µM (active) | AC50 [11]: 2.24 µM (active)

Cc1ccc(Sc2c(C)[nH]n(C(C)(C)C)c2=O)cc1
EC50 [9]: 1.47 µM (active) | AC50 [10]: 30 µM (active)

O=C(Oc1ccc(N(Cc2cccs2)C2=NS(=O)(=O)c3ccccc32)cc1)c1ccccc1Cl
IC50 [5]: 23.2 µM (active)

COC(=O)C1CCN(C(=O)c2cc(-c3ccc(Cl)s3)nc3ccccc23)CC1
AC50 [1]: 3.98 µM (active)

COc1cc(NC(=O)C/C(C)=N/NC(=O)c2cccs2)c(OC)cc1Cl
IC50 [12]: 2.79 µM (active)

CN(C)c1ccc(NC(=O)c2ccc3[nH]cnc3c2)cc1
IC50 [6]: 6.99 µM (active)

O=C(Cn1[nH]c(=O)c2ccccc2c1=O)NC1CCN(Cc2ccccc2)CC1
IC50 [5]: > 79 µM (inactive)

O=C(Nc1ccc(O)cc1)/C(=C\c1cccs1)NC(=O)c1ccccc1
IC50 [6]: 23 µM (active)

C=C(C)CN=C(S)NNC(=O)CCn1c2ccc(Cl)cc2c2cc(Cl)ccc21
EC50 [15]: 2.84 µM (active) | EC50 [16]: 8.01 µM (active) | EC50 [17]: > 120 µM (not active) | EC50 [18]: > 120 µM (not active) | EC50 [19]: > 120 µM (not active) | AC50 [7]: 1.44 µM (active)

C=C(C)COc1ccc(-c2nc(N)ncc2-c2ccc(Br)cc2)c(O)c1
AC50 [7]: 5.37 µM (active) | CC50 [20]: 15.7 µM (active)
